Patent US20150011751A1, “NOVEL TRIAZINE DERIVATIVE” (CARNA BIOSCIENCES, INC., priority 2012, published 2015)

These molecules were tested against Dephosphorylated BTK (Homo sapiens, UniProt Q06187) (assay: Test of activity inhibition against dephosphorylated BTK (mobility shift assay)).
Sequence of Dephosphorylated BTK (Q06187 whole entry): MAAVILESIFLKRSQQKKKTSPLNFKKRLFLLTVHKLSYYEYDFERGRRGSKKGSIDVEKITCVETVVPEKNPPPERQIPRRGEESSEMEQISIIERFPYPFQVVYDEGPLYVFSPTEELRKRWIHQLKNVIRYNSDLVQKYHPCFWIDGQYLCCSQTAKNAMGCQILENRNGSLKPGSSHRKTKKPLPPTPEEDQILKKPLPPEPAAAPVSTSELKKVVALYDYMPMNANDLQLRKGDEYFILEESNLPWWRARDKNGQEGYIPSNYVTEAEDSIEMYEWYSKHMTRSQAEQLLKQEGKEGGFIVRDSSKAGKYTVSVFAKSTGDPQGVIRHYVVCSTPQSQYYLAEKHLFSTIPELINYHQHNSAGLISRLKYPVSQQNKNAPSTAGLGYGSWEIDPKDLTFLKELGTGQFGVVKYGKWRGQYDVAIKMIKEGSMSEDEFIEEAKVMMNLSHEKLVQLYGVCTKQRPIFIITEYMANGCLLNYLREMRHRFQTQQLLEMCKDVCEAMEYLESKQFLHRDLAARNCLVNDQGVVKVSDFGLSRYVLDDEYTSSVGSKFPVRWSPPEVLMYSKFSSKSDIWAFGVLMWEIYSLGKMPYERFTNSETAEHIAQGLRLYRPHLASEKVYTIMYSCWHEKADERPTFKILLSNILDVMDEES

SMILES	IC50 [nM]
Nc1nc(Nc2ccn(CC3CCOCC3)c2)nc(-c2cccc(N3CCc4cc(C5CC5)cc(F)c4C3=O)c2CO)n1 [Example 254, 2-{3-[4-Amino-6-({1-[(tetra-hydro-2H-pyran-4-yl)methyl]-1H-pyrrol-3-yl}amino)-1,3,5-tri-azin-2-yl]-2-(hydroxy-methyl)phenyl}-6-cyclo-propyl-8-fluoro-3,4-dihydroisoquinolin-1(2H)-one]	1.4
COC(=O)c1cccc(Nc2nc(N)nc(-c3cccc(NC(=O)c4ccc(C(C)(C)C)cc4)c3CO)n2)c1 [Example 142, Methyl 3-[(4-amino-6-{3-[4-(tert-butyl)benzamido]-2-(hydroxymethyl)phe-nyl}-1,3,5-triazin-2-yl)amino]benzoate]	3.1
Cn1cc(Nc2nc(N)nc(-c3cccc(N4CCc5cc(C6CC6)cc(F)c5C4=O)c3CO)n2)cc1C(=O)O [Example 224, 4-({4-Amino-6-[3-(6-cyclo-propyl-8-fluoro-1-oxo-3,4-dihydroisoquinolin-2(1H)-yl)-2-(hydroxy-methyl)phenyl]-1,3,5-triazin-2-yl}ami-no)-1-methyl-1H-pyr-role-2-carboxylic acid]	6.6
NC(=O)c1cc(Nc2nc(N)nc(-c3cccc(N4CCc5cc(C6CC6)cc(F)c5C4=O)c3CO)n2)c[nH]1 [Example 255, 4-({4-Amino-6-[3-(6-cyclo-propyl-8-fluoro-1-oxo-3,4-dihydroisoquino-lin-2(1H)-yl)-2-(hydroxy-methyl)phenyl]-1,3,5-triazin-2-yl}ami-no)-1H-pyrrole-2-carboxamide]	0.5
CC(C)(C)c1ccc(C(=O)Nc2cccc(-c3nc(N)nc(Nc4ccc(CN5CCOCC5)cc4)n3)c2CO)cc1 [Example 79, N-[3-(4-Amino-6-{[4-(morpho-linomethyl)phe-nyl]amino}-1,3,5-triazin-2-yl)-2-(hydroxymeth-yl)phenyl]-4-(tert-butyl)benzamide]	0.6
CC(C)(C)c1ccc(C(=O)Nc2cccc(-c3ncnc(Nc4ccc(C(=O)N5CCOCC5)cc4)n3)c2CO)cc1 [Example 115, 4-(tert-Butyl)-N-[2-(hy-droxymethyl)-3-(4-{[4-(morpholine-4-carbo-nyl)phenyl]amino}-1,3,5-triazin-2-yl)phe-nyl]benzamide]	9.4
CN(C)CCOc1ccc(Nc2nc(N)nc(-c3cccc(NC(=O)c4ccc(C(C)(C)C)cc4)c3CO)n2)cc1 [Example 166, N-{3-[4-Amino-6-({4-[2-(dimethylamino)eth-oxy]phenyl}amino)-1,3,5-triazin-2-yl]-2-(hy-droxymethyl)phenyl}-4-(tert-butyl)benzamide]	1
N#CCc1ccc(Nc2nc(N)nc(-c3cccc(N4CCc5cc(C6CC6)cc(F)c5C4=O)c3CO)n2)cc1 [Example 190, 2-[4-({4-Amino-6-[3-(6-cyclopropyl-8-fluoro-1-oxo-3,4-dihydroiso-quinolin-2(1H)-yl)-2-(hydroxymethyl)phenyl]-1,3,5-triazin-2-yl}amino)phenyl]acetonitrile]	1.4
Nc1nc(Nc2cccc(N3CCOCC3)c2)nc(-c2cccc(N3CCc4cc(C5CC5)cc(F)c4C3=O)c2CO)n1 [Example 243, 2-(3-{4-Amino-6-[(3-morpho-linophenyl)amino]-1,3,5-triazin-2-yl}-2-(hydroxymethyl)phe-nyl)-6-cyclopropyl-8-fluoro-3,4-dihydroiso-quinolin-1(2H)-one]	2.3
Nc1nc(Nc2ccc(N3CCN(C=O)CC3)cc2)nc(-c2cccc(N3CCc4cc(C5CC5)cc(F)c4C3=O)c2CO)n1 [Example 189, 4-[4-({4-Amino-6-[3-(6-cyclopropyl-8-fluoro-1-oxo-3,4-dihydroiso-quinolin-2(1H)-yl)-2-(hydroxymethyl)phenyl]-1,3,5-triazin-2-yl}amino)phenyl]pipera-zine-1-carbaldehyde]	1.2
CCN(CC)c1ccc(Nc2nc(N)nc(-c3cccc(N4CCc5cc(C6CC6)cc(F)c5C4=O)c3CO)n2)cc1 [Example 245, 2-[3-(4-Amino-6-{[4-(di-ethylamino)phenyl]a-mino}-1,3,5-triazin-2-yl)-2-(hydroxymethyl)phenyl]-6-cyclopropyl-8-fluoro-3,4-dihydro-isoquinolin-1(2H)-one]	5.6
